Measurements from article PMC7589326, “Synthesis and Pharmacological Evaluation of Fluorinated Quinoxaline‐Based κ‐Opioid Receptor (KOR) Agonists Designed for PET Studies” (Chemmedchem, 2020).
Entries after “also recorded” stand apart in the source; their conditions may differ.

How the values were obtained:
MOG induced EAE = settings: mouse, in vivo; cited from earlier work
KOR [1] = target: T1, KOR (Homo sapiens, UniProt P41145); parameters: expressed in transfected cells; host or cells: HEK 293T (ATCC CRL-11268); method as in PMID 30543421; settings: human HEK 293T cells; refers to U-50,488 (100 %); cited from earlier work
Target sequence in this assay (P41145 whole entry, the tested form may be a part): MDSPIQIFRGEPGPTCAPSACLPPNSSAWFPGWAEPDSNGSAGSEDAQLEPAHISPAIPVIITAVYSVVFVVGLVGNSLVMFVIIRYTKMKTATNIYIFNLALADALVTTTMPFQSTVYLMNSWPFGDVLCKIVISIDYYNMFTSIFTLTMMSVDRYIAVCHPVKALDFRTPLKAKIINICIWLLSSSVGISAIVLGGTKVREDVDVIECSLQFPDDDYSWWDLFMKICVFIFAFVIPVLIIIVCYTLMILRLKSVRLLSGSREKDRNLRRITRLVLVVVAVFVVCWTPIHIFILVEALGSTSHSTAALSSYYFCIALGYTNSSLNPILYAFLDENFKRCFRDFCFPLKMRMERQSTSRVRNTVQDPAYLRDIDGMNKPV

KOR [2] = target: T1, KOR; parameters: expressed in transfected cells; host or cells: HTLA cells (stably expressing TEV-fused β-arrestin2); method as in PMID 30543421; settings: human HTLA cells; refers to U-50,488 (100 %); cited from earlier work
Target sequence in this assay (P41145 whole entry, the tested form may be a part): as above
Target sequence in this assay (P32121 whole entry partner, the tested form may be a part): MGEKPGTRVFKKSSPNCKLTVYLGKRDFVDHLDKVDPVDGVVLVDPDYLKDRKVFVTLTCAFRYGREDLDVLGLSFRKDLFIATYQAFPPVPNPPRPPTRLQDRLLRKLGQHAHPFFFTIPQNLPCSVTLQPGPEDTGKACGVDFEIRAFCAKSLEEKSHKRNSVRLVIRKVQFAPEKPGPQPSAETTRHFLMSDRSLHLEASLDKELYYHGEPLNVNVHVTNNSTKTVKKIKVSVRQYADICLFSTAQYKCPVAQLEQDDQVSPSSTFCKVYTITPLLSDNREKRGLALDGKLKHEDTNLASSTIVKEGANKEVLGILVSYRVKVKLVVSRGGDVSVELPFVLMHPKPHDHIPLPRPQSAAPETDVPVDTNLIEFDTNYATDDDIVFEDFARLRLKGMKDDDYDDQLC

[3] = In vitro biotransformation with mouse liver microsomes and NADPH (LC-MS/MS); settings: mouse liver microsomes, NADPH, 90 min
[4] = Distribution coefficient logD7.4, shake flask method with radioligand; assay type: physicochemical; settings: n-octanol / phosphate buffered saline pH 7.4
Procedure: The distribution coefficient at pH 7.4 (logD7.4) was determined by a shake flask method using the radioligand [^18F]‐2. After distribution of [^18F]‐2 between n‐octanol and phosphate buffered saline (pH 7.4) layers, the radioactivity in both layers was determined and set in ratio. According to this procedure, a logD7.4 value of 1.37±0.06 was determined indicating a moderate lipophilic compound, which should be able to penetrate into the central nervous system.
The lipophilicity of radioligands [^18F]‐2 and [^18F]‐14c was assessed by determination of the water n‐octan‐1‐ol distribution coefficient (logD) following a published procedure.57 In brief, approximately 3.2 MBq of radioligand [^18F]‐2 and approximately 0.3 MBq of radiotracer [^18F]‐14c, respectively, were mixed with equal amounts (0.6 mL) of phosphate buffered saline (PBS, pH 7.4) and n‐octan‐1‐ol. The resulting biphasic system was mixed vigorously for 3 min at room temperature and subsequently, the tubes were centrifuged (≥5 min). Then 400 μL of the n‐octan‐1‐ol layer was separated and 400 μL of PBS were added. The mixture was mixed vigorously for 10 min at room temperature followed by centrifugation of the tubes for≥5 min. Two samples of 100 μL of each layer were counted in a γ‐counter (2480 Automatic Gamma Counter Wizard^2, Perkin‐Elmer). The distribution coefficient was determined by calculating the ratio cpm(n‐octan‐1‐ol)/cpm(PBS) and expressed as logD 7.4 (log(cpmn‐octanol/cpmPBS)). Three independent experiments were performed in duplicate and data were provided as mean values ±standard deviation.

[5] = Stability in mouse serum (radio-HPLC); assay type: in vitro ADME; settings: 90 min, 37 °C
Procedure: (§1) Enzymes present in blood serum could be able to transform the radioactive PET tracer [^18F]‐2. Therefore, the blood serum stability of [^18F]‐2 was investigated before testing the tracer in vivo. [^18F]‐2 was incubated with mouse and human serum for 90 min at 37 °C.
(§2) The serum stability of radioligands [^18F]‐2 and [^18F]‐14c was evaluated by incubation in mouse or human serum at 37 °C for up to 90 min. An aliquot of formulated [^18F]‐2 or [^18F]‐14c (20 μL, ca. 6.6 MBq and ca.10 MBq, respectively) was added to a sample of mouse serum (200 μL) or human serum (200 μL), and the mixtures were incubated at 37 °C. Samples of 20 μL each were taken after periods of 10, 30, 60 and 90 min and ice‐cold DNA‐grade CH3CN (100 μL) were added. After centrifugation for ≥5 min, the supernatant was analyzed by analytical radio‐HPLC B, method B.

[6] = Stability in human serum (radio-HPLC); assay type: in vitro ADME; settings: 90 min, 37 °C
Procedure: as §1, §2

[7] = In vivo biodistribution, small animal PET in C57BL/6 mice; parameters: species or system mouse; settings: C57BL/6 mice, intravenous injection
Procedure: Next, the distribution of the PET tracer [^18F]‐2 in mice was investigated. For this purpose, [^18F]‐2 was injected into 15‐week‐old C57BL/6 mice. […] Already after 2 min the radioactivity was almost completely found in liver, kidneys and bladder. In the liver, the radioactivity remained almost constant over the period of 90 min (Figure 6). Besides a transient local increase in radioactivity in the submandibular and harderian glands, no significant accumulation of [^18F]‐2 in non‐excreting organs such as heart, lung and muscles as indicator for unspecific binding could be detected.
Adult C57BL/6 mice (n=2 male, 15 weeks, 28 g for [^18F]‐2; n=2, male, 10 weeks, 25 g for [^18F]‐14c) were anesthetized by isoflurane/O2 and one lateral tail vein was cannulated BY using a 27 G needle connected to 15 cm polyethylene catheter tubing. Radiotracers (∼500 kBq/g bodyweight, 15 MBq) were injected as a bolus (50 μL compound flushed with 100 μL saline) via the tail vein and subsequent PET scanning was performed.
Small Animal PET Scanning. PET experiments were carried out using a submillimeter high resolution (0.7 mm full width at half‐maximum) small animal scanner (32 module quadHIDAC, Oxford Positron Systems Ltd., Oxford, UK) with uniform spatial resolution (<1 mm) over a large cylindrical field (165 mm diameter, 280 mm axial length). List‐mode data were acquired for 90 min and reconstructed into dynamic time frames using an iterative reconstruction algorithm. Subsequently, the scanning bed was transferred to the computed tomography (CT) scanner (Inveon, Siemens Medical Solutions, U.S.), and a CT acquisition with a spatial resolution of 80 μm was performed for each mouse. Reconstructed image data sets were coregistered based on extrinsic markers attached to the multimodal scanning bed and the in‐house developed image analysis software MEDgical. Three‐dimensional volumes of interest (VOIs) were defined over the respective organs in CT data sets, transferred to the coregistered PET data, and analyzed quantitatively. Regional uptake was calculated as percentage of injected dose by dividing counts per milliliter in the VOI by total counts in the mouse multiplied by 100 (%ID/mL).

[8] = Biostability and biotransformation in mice in vivo (radio-HPLC of pooled blood); parameters: species or system mouse; settings: pooled blood of three mice, 90 min after injection
Procedure: In order to investigate the in vivo biotransformation of [^18F]‐2, the blood of three mice 90 min after injection of [^18F]‐2 was pooled and analyzed.
Approximately 72 MBq of [^18F]‐2 (in a volume of 100 μL) were injected into the tail vein of each of three 11‐week‐old C57/BL6 mice. The animals were sacrificed 90 min after injection. Whole blood of the three mice was pooled (∼2 mL) and centrifuged (3 min) to isolate plasma. Plasma (∼0.7 mL) was separated and mixed with ice‐cold CH3CN (1.4 mL). After further centrifugation for 5 min, the supernatant was separated and evaporated to dryness in vacuo at moderate temperatures (≤60 °C). The residue was dissolved in water for injection (20 μL) and the solution was analyzed by analytical radio‐HPLC B, method B.

For O=C(Cc1ccc(Cl)c(Cl)c1)N1CCN(Cc2cn(CCF)nn2)C2CCCC(N3CCCC3)C21 (centres unmarked) [compound 2], the “protection from MS-like symptoms / disease severity in EAE” value (MOG induced EAE) is listed as “significantly decreased diseases severity and delayed disease onset; also recorded: almost complete protection”, the “cAMP E max” value (KOR [1]) is listed as 103% and the “β-Arrestin-2 E max” value (KOR [2]) is listed as 86%.

In the case of O=C(Cc1ccc(Cl)c(Cl)c1)N1CCNC2CCCC(N3CCC(F)C3)C21 (centres unmarked) [14c‐5], the “amount of metabolite formed from 14c” value [3] is reported as “minor amounts”.

With O=C(Cc1ccc(Cl)c(Cl)c1)N1CCN(Cc2cn(CC[18F])nn2)[C@H]2CCC[C@H](N3CCCC3)[C@H]21 [[^18F]‐2, 2‐(3,4‐Dichlorophenyl)‐1‐((4aR,8R,8aS)‐ and ((4aS,8S,8aR)‐ 4‐{[1‐(2‐[^18F]fluoroethyl)‐1H‐1,2,3‐triazol‐4‐yl]methyl}‐8‐ (pyrrolidin‐1‐yl)‐3,4,4 a,5,6,7,8,8 a‐octahydroquinoxalin‐ 1(2H)‐yl)ethan‐1‐one] the logD [4] was 1.37 ± 0.06, the “stability in mouse serum” value [5] was “high stability” and the “stability in human serum” value [6] was “high stability”. For the same compound, the “radioactivity in the bones / defluorination” value [7] was “increased radioactivity in the bones was not observed”, the “enrichment of radioactivity in brain or spinal cord (PET images)” value ([7]; 90 min observation) was “do not show any enrichment of radioactivity in the brain or spinal cord” and the “clearance from the body” value ([7]; hepatic and renal pathways) was “very fast and efficient clearance”. For the same compound, the “intact PET tracer in blood” value [8] was 90%.
